Toxic doses and inconclusive results are not listed.
System: BDF1 mice, B16 melanoma ip, median survival T/C
Test: NCI In Vivo Anticancer Drug Screen. Data for tumor model B16 Melanoma (intraperitoneal) in B6D2F1 (BDF1) mice
Conditions: endpoint: median survival time, higher = longer survival
In short: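 Transplantable tumor model; survival or tumor size measured; reported as T/C, treated over vehicle control.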

[1] = dose: 100.0 mg/kg/injection, schedule: Q01DX009 (ip), vehicle: Klucel (hydroxypropylcellulose) (HPC)
[2] = dose: 200.0 mg/kg/injection, schedule: Q01DX009 (ip), vehicle: Klucel (hydroxypropylcellulose) (HPC)
[3] = dose: 100.0 mg/kg/injection, schedule: Q01DX009 (ip), vehicle: saline with Tween-80
[4] = dose: 200.0 mg/kg/injection, schedule: Q01DX009 (ip), vehicle: saline with Tween-80

COc1ccc(N=NN(C(C)=O)c2ccccc2)cc1
T/C [1]: 102 % of control | T/C [2]: 102 % of control

CCCCCCCCC(=O)CCCCCC
T/C [1]: 100 % of control | T/C [2]: 96 % of control | T/C (dose: 400.0 mg/kg/injection, schedule: Q01DX009 (ip), vehicle: Klucel (hydroxypropylcellulose) (HPC)): 104 % of control

NC1=NC(=S)C2N=C(N=Nc3ccc(C(=O)NC(CCC(=O)O)C(=O)O)cc3)N=C2N1 (centres undefined)
T/C (dose: 0.09 mg/kg/injection, schedule: Q01DX009 (ip), vehicle: Klucel (hydroxypropylcellulose) (HPC)): 100 % of control | T/C (dose: 0.19 mg/kg/injection, schedule: Q01DX009 (ip), vehicle: Klucel (hydroxypropylcellulose) (HPC)): 107 % of control | T/C (dose: 0.39 mg/kg/injection, schedule: Q01DX009 (ip), vehicle: Klucel (hydroxypropylcellulose) (HPC)): 111 % of control | T/C (dose: 0.78 mg/kg/injection, schedule: Q01DX009 (ip), vehicle: Klucel (hydroxypropylcellulose) (HPC)): 107 % of control | T/C (dose: 1.56 mg/kg/injection, schedule: Q01DX009 (ip), vehicle: Klucel (hydroxypropylcellulose) (HPC)): 89 % of control

COC(=O)CCC1=C(C)c2cc3[n-]c(cc4nc(cc5[n-]c(cc1n2)c(CCC(=O)OC)c5C)C=C4C)cc3C.[Ni+2]
T/C (dose: 1.56 mg/kg/injection, schedule: Q01DX009 (ip), vehicle: saline with Tween-80): 91 % of control | T/C (dose: 3.13 mg/kg/injection, schedule: Q01DX009 (ip), vehicle: saline with Tween-80): 88 % of control | T/C (dose: 6.25 mg/kg/injection, schedule: Q01DX009 (ip), vehicle: saline with Tween-80): 86 % of control

Cc1ccc(NS(=O)(=O)c2cccc([N+](=O)[O-])c2)cc1Cl
T/C [3]: 107 % of control | T/C [4]: 105 % of control | T/C (dose: 400.0 mg/kg/injection, schedule: Q01DX009 (ip), vehicle: saline with Tween-80): 96 % of control

Cc1c(C)c2c(c(C)c1O)CCC(C)(CCCC(C)CCCC(C)CCCC(C)C)O2 (centres undefined)
T/C [3]: 95 % of control | T/C [4]: 90 % of control

O=C[C@@H](CO)O[C@H](C=O)n1cnc2c(=O)[nH]cnc21
T/C (dose: 37.5 mg/kg/injection, schedule: Q01DX009 (ip), vehicle: saline): 95 % of control | T/C (dose: 75.0 mg/kg/injection, schedule: Q01DX009 (ip), vehicle: saline): 95 % of control | T/C (dose: 150.0 mg/kg/injection, schedule: Q01DX009 (ip), vehicle: saline): 88 % of control

CCCCCCCCCCCCCCCCCCOCC(CO)OC (centres undefined)
T/C (dose: 25.0 mg/kg/injection, schedule: Q01DX009 (ip), vehicle: saline with Tween-80): 102 % of control | T/C (dose: 50.0 mg/kg/injection, schedule: Q01DX009 (ip), vehicle: saline with Tween-80): 100 % of control | T/C [3]: 98 % of control | T/C [4]: 92 % of control

COc1cccc(/C=C/[N+](=O)[O-])c1OC
T/C (dose: 35.0 mg/kg/injection, schedule: Q01DX009 (ip), vehicle: saline with Tween-80): 117 % of control | T/C (dose: 70.0 mg/kg/injection, schedule: Q01DX009 (ip), vehicle: saline with Tween-80): 104 % of control

CN(C)CCN(Cc1ccccc1)c1ccccc1
T/C (dose: 25.0 mg/kg/injection, schedule: Q04DX003 (ip), vehicle: Klucel (hydroxypropylcellulose) (HPC)): 95 % of control | T/C (dose: 50.0 mg/kg/injection, schedule: Q04DX003 (ip), vehicle: Klucel (hydroxypropylcellulose) (HPC)): 89 % of control

— PubChem BioAssay AID192 (DTP/NCI, 2004)
